# Assay results: patent US6914045B2, “Glycopeptide antibiotics” (Wyeth Holdings Corporation, priority 2001, dated 2005)
# Columns and labels:
# Experiment in all cases: in vitro antibacterial evaluation, MIC by broth dilution
# Format in all cases: cell-based
# [1] = test system: Enterococcus sp.; conditions: broth dilution, 18 hours at 35° C.
# Summary of the method: (§1)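 Broth dilution per NCCLS standard M7-A2 in Muller-Hinton II […], with an inoculum of 5×10^5 CFU/mL and antibiotic spanning 64-0.06 μg/mL. The MIC is the lowest concentration that inhibits growth of the organism.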
# [2] = test system: Staphylococcus sp.; conditions: broth dilution, 18 hours at 35° C.
# Summary of the method: as §1
# [3] = test system: Streptococcus sp.; conditions: broth dilution, 18 hours at 35° C.
# Summary of the method: as §1
# [4] = test system: Escherichia coli; conditions: 18 hours at 35° C.
# Summary of the method: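 Broth dilution in Muller-Hinton II medium per NCCLS standard M7-A2, with an inoculum of 5×10^5 CFU/mL and antibiotic tested over 64-0.06 μg/mL. MIC was taken as the lowest concentration inhibiting visible growth.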
compound,measurement,setting,value
"CCCC(CCC)C(=O)OCC1OC(Oc2ccc(CC3NC(=O)C(C(C)c4ccccc4)NC(=O)CNC(=O)C(CO)NC(=O)C(C(O)C4CNC(=N)N4C4OC(CO)C(O)C(O)C4O)NC(=O)C(C(O)C4CNC(=N)N4)NC3=O)cc2)C(O)C(O)C1OC1OC(CO)C(O)C(O)C1O (stereo not drawn) [Example 99b, Cyclo[glycyl-β-methylphenylalanyl-O-[4-O-hexopyranosyl-6-O-(2-propylpentanoyl)hexopyranosyl]tyrosyl-3-(2-iminoimidazolidin-4-yl)seryl-3-(3-hexopyranosyl-2-iminoimidazolidin-4-yl)serylseryl]]",MIC Enterococcus avium (GC 4558),[1]; Enterococcus avium (GC 4558),16 µg/mL
same,MIC Enterococcus faecalis (ATCC 29212),[1]; Enterococcus faecalis (ATCC 29212),16 µg/mL
same,MIC Enterococcus faecalis (GC 2242),[1]; Enterococcus faecalis (GC 2242),16 µg/mL
same,MIC Enterococcus faecalis (GC 4552),[1]; Enterococcus faecalis (GC 4552),32 µg/mL
same,MIC Enterococcus faecalis (GC 4553),[1]; Enterococcus faecalis (GC 4553),16 µg/mL
same,MIC Enterococcus faecalis (GC 4554),[1]; Enterococcus faecalis (GC 4554),32 µg/mL
same,MIC Enterococcus faecium (GC 2243),[1]; Enterococcus faecium (GC 2243),16 µg/mL
same,MIC Enterococcus faecium (GC 4556),[1]; Enterococcus faecium (GC 4556),16 µg/mL
same,MIC Enterococcus faecium (GC 4557),[1]; Enterococcus faecium (GC 4557),4 µg/mL
same,MIC Enterococcus avium (GC 4558),[1],16 µg/mL
same,MIC Enterococcus faecalis (ATCC 29212),[1],16 µg/mL
same,MIC Enterococcus faecalis (GC 2242),[1],16 µg/mL
same,MIC Enterococcus faecalis (GC 4552),[1],32 µg/mL
same,MIC Enterococcus faecalis (GC 4553),[1],16 µg/mL
same,MIC Enterococcus faecalis (GC 4554),[1],32 µg/mL
same,MIC Enterococcus faecium (GC 2243),[1],16 µg/mL
same,MIC Enterococcus faecium (GC 4556),[1],16 µg/mL
same,MIC Enterococcus faecium (GC 4557),[1],4 µg/mL
same,MIC Coagulase Negative Staphylococcus (GC 4547),[2],4 µg/mL
same,MIC Coagulase Negative Staphylococcus (GC 4548),[2],4 µg/mL
same,MIC Coagulase Negative Staphylococcus (GC 4549),[2],2 µg/mL
same,MIC Coagulase Negative Staphylococcus (GC 4551),[2],8 µg/mL
same,MIC Coagulase Negative Staphylococcus (ID-3941),[2],2 µg/mL
same,MIC Staphylococcus aureus-SMITH (GC 4543),[2],4 µg/mL
same,MIC Staphylococcus haemolyticus (GC 4546),[2],4 µg/mL
same,MIC Staphylococcus haemolyticus (GC 4546),[2]; strain GC 4546,4 µg/mL
same,MIC Coagulase Negative Staphylococcus (GC 4547),[2]; strain GC 4547,4 µg/mL
same,MIC Coagulase Negative Staphylococcus (GC 4548),[2]; strain GC 4548,4 µg/mL
same,MIC Coagulase Negative Staphylococcus (GC 4549),[2]; strain GC 4549,2 µg/mL
same,MIC Coagulase Negative Staphylococcus (GC 4551),[2]; strain GC 4551,8 µg/mL
same,MIC Coagulase Negative Staphylococcus (ID-3941),[2]; strain ID-3941,2 µg/mL
same,MIC Staphylococcus aureus-SMITH (GC 4543),[2]; strain SMITH GC 4543,4 µg/mL
same,MIC Staphylococcus aureus (ATCC 29213),[2]; strain ATCC 29213,4 µg/mL
same,MIC Staphylococcus aureus (GC 1131),[2]; strain GC 1131,4 µg/mL
same,MIC Staphylococcus aureus (GC 4541),[2]; strain GC 4541,4 µg/mL
same,MIC Staphylococcus aureus (GC 4542),[2]; strain GC 4542,4 µg/mL
same,MIC Staphylococcus aureus (GC 4544),[2]; strain GC 4544,4 µg/mL
same,MIC Staphylococcus aureus (GC 4545),[2]; strain GC 4545,4 µg/mL
same,MIC Streptococcus agalactiae (GC 4564),[3]; Streptococcus agalactiae (GC 4564),2 µg/mL
same,MIC Streptococcus pneumoniae (GC 4565),[3]; Streptococcus pneumoniae (GC 4565),<0.5 µg/mL
same,MIC Streptococcus pyogenes (ID-3187),[3]; Streptococcus pyogenes (ID-3187),1 µg/mL
same,MIC Streptococcus agalactiae (GC 4564),[3],2 µg/mL
same,MIC Streptococcus pneumoniae (GC 4565),[3],<0.5 µg/mL
same,MIC Streptococcus pyogenes (ID-3187),[3],1 µg/mL
same,MIC Escherichia coli (ATCC 25922),[4],>64 µg/mL
